*1 amine or outer side, *2 acyl side, *3 side chain or, on linkers, in order; H or OH if unused. Where a SMILES comes first, the peptide text is derived from it. Bridges are numbered along the chain shown (N, C = ends). [ ]: non-standard residue; d: D form. ξ: configuration not given here. Phe(4-NO2) = N[C@@H](Cc1ccc([N+](=O)[O-])cc1)C(=O)O; Phe(4-Cl) = N[C@@H](Cc1ccc(Cl)cc1)C(=O)O; NHCH2CMe2S = CC(C)(CN[*:1])S[*:2]; NMeR = CN[C@@H](CCCNC(=N)N)C(=O)O; X1 = CC(C)(CN[*:2])S[*:1]; ξC = NC(CS)C(=O)O; Sar = CNCC(=O)O
Assays:
[1] = target: T1, bovine pancreatic trypsin (Bos taurus, UniProt P00760); experiment: Trypsin stability assay (Table 10); type: in vitro ADME; settings: for half-life: bovine pancreatic trypsin 2.5 μg/mL, 37° C., One Phase Decay, read-out: Stability (t1/2, mins) Trypsin
T1 construct: from tissue; host or cells: bovine pancreas
T1 sequence (P00760 24-246): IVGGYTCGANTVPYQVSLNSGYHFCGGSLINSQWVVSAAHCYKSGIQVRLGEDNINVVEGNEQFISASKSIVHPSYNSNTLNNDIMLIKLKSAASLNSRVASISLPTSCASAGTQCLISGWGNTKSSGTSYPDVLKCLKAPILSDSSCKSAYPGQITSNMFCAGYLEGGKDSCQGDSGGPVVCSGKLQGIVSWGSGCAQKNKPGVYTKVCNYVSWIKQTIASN
Excerpt: (§1) FIG. 20 is a series of graphs showing the stability of selected peptides in a trypsin (left-hand graphs) and plasma (right-hand graphs) stability assay (data normalised to concentration of each peptide at t=0, determined by LCMS, within each substrate; data analysed using One Phase Decay nonlinear regression in Prism software and each experiment performed in triplicate; mean+/−SEM);
Plasma was collected in house from adult mixed-gender Wistar rats, prepared using 2% EDTA as per standard practice. Peptides were added to rat plasma samples at 37° C. (in a water bath) with final concentrations of 100 uM (1:9 peptide in water:plasma) and a 50 μL sample was immediately taken and precipitated in 150 μL cold acetonitrile (9:1 ACN:water). This sample became the baseline, or t=0 min sample. […] At each time point, the 50 μL of plasma collected was immediately added to cold ACN. Each collected plasma sample in ACN was directly vortexed for 30 seconds and then centrifuged at room temperature (13K rpm, 5 min). 150 μL of the supernatant was taken and directly placed in glass HPLC vials for LCMS analysis.
The protocol for the trypsin stability assay was very similar to the plasma stability assay discussed above. The only difference was the use of a trypsin solution (bovine pancreatic trypsin 2.5 μg/mL in NH4HCO3 buffer, pH approx. 8-8.5, 37° C.) instead of rat plasma. Volumes, times and preparation protocols were exactly as mentioned above.

[2] = Plasma stability assay (Table 10); type: in vitro ADME; settings: rat plasma, 37° C., 100 uM peptide, One Phase Decay; read-out: Stability (t1/2, mins) Plasma
Excerpt: as §1
(§2) The results shown in Table 10 utilized rat plasma. • Note that DP-7-11 and CP5 represent the same compound, and DP-7-12 and CP6 are the same compound. In this regard, a different regression analysis method was adopted on the above cAMP experiments. Particularly, a new non-linear regression (four-parameter) was adopted to better account for hill slope, thereby improving the regression fit.
Plasma was collected in house from adult mixed-gender Wistar rats, prepared using 2% EDTA as per standard practice. Peptides were added to rat plasma samples at 37° C. (in a water bath) with final concentrations of 100 uM (1:9 peptide in water:plasma) and a 50 μL sample was immediately taken and precipitated in 150 μL cold acetonitrile (9:1 ACN:water). This sample became the baseline, or t=0 min sample. Plasma with peptide was immediately returned to the water bath and subsequent 50 μL samples were taken at 5, 10, 15, 30, 60 and 120 min. At each time point, the 50 μL of plasma collected was immediately added to cold ACN. Each collected plasma sample in ACN was directly vortexed for 30 seconds and then centrifuged at room temperature (13K rpm, 5 min). 150 μL of the supernatant was taken and directly placed in glass HPLC vials for LCMS analysis.

trypsin = target: T2, trypsin (Bos taurus, UniProt P00760); experiment: Trypsin stability; type: in vitro ADME; settings: for Trypsin: complete degradation within: 37° C. (Table 8)
T2 sequence (P00760 24-246): T1 sequence (P00760 24-246)
Experimental: (§3) Purified DP-7-11 (1 mg/mL) was dissolved in 0.1 M ammonium bicarbonate (NH4HCO3) buffer. To prepare a stock trypsin solution, 1 mg trypsin was dissolved in 50 mL of 0.1 M NH4HCO3 buffer. Equal volumes of the stock trypsin solution (62.5 μL) and DP-7-11 solution (62.5 μL) were incubated in 375 μL of 0.1M NH4HCO3 buffer in a 37° C. water bath. Aliquots of 100 μL were collected from this mixture at set time intervals of 0 min, up to 24 hours. Ice-cold acetonitrile containing 0.5% TFA was used to quench the reaction between DP-7-11 and trypsin at predetermined intervals, and just prior to HPLC or LC-MS analysis. The quenched samples were vortexed for 10 minutes followed by centrifugation at 12,000 rpm for a further 15 minutes. Supernatant was sampled and analysed using analytical RP-HPLC or LC-MS. Samples without trypsin acted as negative controls and were sampled at two intervals of 0 hour and 6 hours.
(§4) As used in this serum and trypsin stability discussion, the term ‘degraded completely’ relates to the relevant compound being completely absent when tested. In other words, the compound being tested is not observed when tested.
(§5) The serum and trypsin stability of DP-7-11 and DP-7-12 were tested (in some instances again) using LC-MS. The LC-MS utilized in this study was more sensitive than the LC-MS utilized in the above tests.

MOP = MOP (Homo sapiens, UniProt P35372); experiment: In vitro cAMP activity at MOP (Table 10); type: cell-based; settings: cAMP inhibition, four-parameter regression
Experimental: (§6) The CP series compounds were assayed as follows: The assay was performed using a 96 well ½ area plate. The different cAMP standard solutions (3 μL/well) were plated in duplicate. The different concentrations of drug (3 μL/well), and control solutions (3 μL/well) were plated in triplicate. Following this, the acceptor bead mixture (3 μL/well) was added to the respective sets—either cAMP standard curve or the treatment. This was covered and incubated on the orbital shaker for 60 minutes at 37° C. Then, the donor bead mixture (10 μL/well) was added to each well. This was incubated at room temperature overnight on the orbital shaker.
(§7) For DP-11-06 the assay was carried out in the same way as for the CP compounds except it was incubated for 30 mins at 37° C.
(§8) For the CP series compounds and DP-11-06, the Ensight® Multimode Plate Reader was used to quantify the fluorescence units of each plate. Before reading, each plate was centrifuged at 280 g for 30 seconds. Using GraphPad Prism7® Software, cAMP concentrations were determined by fit spline/LOWESS analysis. The cAMP standard curve was used for interpolation at this point. The cAMP concentrations were then normalized to the highest cAMP concentration recorded and analyzed by one-way ANOVA for multiple comparisons. The IC50 for each compound was then calculated using GraphPad Prism7® with non-linear regression analysis using four parameter curve fitting.
(§9) In this regard, a different regression analysis method was adopted on the above cAMP experiments. Particularly, a new non-linear regression (four-parameter) was adopted to better account for hill slope, thereby improving the regression fit.

KOP = KOP (Homo sapiens, UniProt P41145); experiment: In vitro cAMP activity at KOP (Table 10); type: cell-based; settings: cAMP inhibition, four-parameter regression, normalised to U50488H
Experimental: as §6, §7, §8, §2

DOP = DOP (Homo sapiens, UniProt P41143); experiment: In vitro cAMP activity at DOP (Table 10); type: cell-based; settings: cAMP inhibition, four-parameter regression
Experimental: as §6, §7, §8, §9

Serum stability = type: in vitro ADME; settings: rat, serum, 37° C., LC-MS (Table 8)
Experimental: as §3
Serum stability of DP-7-11 was also performed. In this regard, rat serum replaced trypsin and NH4HCO3 buffer. Water was used as negative control in place of serum, with the stability study performed in an identical fashion to the trypsin study. […] DP-11-00 and DP-11-06 were tested in a similar manner.
as §4
This appears to indicate the improved metabolic stability of the present invention.
as §5

DOP, sequence (P41143 whole entry): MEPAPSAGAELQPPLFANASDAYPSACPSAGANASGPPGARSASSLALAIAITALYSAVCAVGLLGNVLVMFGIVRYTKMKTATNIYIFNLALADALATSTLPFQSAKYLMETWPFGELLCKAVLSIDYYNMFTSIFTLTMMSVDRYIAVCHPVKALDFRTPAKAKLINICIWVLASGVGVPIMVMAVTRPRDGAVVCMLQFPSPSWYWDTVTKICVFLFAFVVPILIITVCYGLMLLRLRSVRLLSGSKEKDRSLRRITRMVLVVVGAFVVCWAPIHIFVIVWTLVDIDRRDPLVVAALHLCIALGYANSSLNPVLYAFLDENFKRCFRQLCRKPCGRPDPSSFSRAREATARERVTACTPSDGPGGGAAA
KOP, sequence (P41145 whole entry): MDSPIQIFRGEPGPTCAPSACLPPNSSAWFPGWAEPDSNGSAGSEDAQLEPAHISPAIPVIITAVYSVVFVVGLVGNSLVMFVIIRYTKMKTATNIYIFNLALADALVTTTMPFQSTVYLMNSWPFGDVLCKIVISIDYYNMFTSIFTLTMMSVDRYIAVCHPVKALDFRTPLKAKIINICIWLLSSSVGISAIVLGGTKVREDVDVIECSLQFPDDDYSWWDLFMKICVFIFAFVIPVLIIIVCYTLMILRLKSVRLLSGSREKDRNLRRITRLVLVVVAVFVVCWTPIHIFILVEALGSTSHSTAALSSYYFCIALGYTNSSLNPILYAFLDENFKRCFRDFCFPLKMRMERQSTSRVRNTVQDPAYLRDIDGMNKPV
MOP, sequence (P35372 whole entry): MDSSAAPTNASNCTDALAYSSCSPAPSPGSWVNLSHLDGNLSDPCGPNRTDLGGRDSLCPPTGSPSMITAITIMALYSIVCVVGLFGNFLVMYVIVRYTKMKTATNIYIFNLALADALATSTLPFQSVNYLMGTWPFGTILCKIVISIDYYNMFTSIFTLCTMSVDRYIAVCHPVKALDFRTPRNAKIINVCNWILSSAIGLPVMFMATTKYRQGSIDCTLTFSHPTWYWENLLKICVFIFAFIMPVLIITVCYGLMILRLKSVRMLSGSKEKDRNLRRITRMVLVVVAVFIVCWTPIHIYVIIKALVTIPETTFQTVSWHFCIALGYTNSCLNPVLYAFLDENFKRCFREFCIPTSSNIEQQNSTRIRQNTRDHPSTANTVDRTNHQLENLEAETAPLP

Structure (SMILES)	half-life [1]	half-life [2]	EC50 (MOP)	EC50 (KOP)	EC50 (DOP)	other results
CC1(C)CNC(=O)C[C@H](C(=O)N[C@@H](CCCNC(=N)N)C(=O)N[C@@H](CCCNC(=N)N)C(N)=O)NC(=O)[C@H](Cc2ccccc2)NC(=O)C(NC(=O)CNC(=O)[C@@H](N)Cc2ccc(O)cc2)CSS1 (stereo partly drawn) [DP-7-13, c(Tyr-Gly-SSa-Phe-D(Asp)-Arg-Arg)] (H-YG[ξC]F[dD]RR-NH2; linker 3-5 via X1; N-terminus assumed)	< 0.01 min	< 0.01 min	–	–	–	–
CC(C)C[C@H](NC(=O)[C@H](Cc1ccccc1)NC(=O)CNC(=O)CNC(=O)[C@@H](N)Cc1ccc(O)cc1)C(=O)N[C@@H](CCCNC(=N)N)C(=O)N[C@@H](CCCNC(=N)N)C(N)=O [DP-7-00, Tyr-Gly-Gly-Phe-Leu-Arg-Arg]	–	–	–	–	–	Susceptibility to trypsin digestion (trypsin): highly susceptible; Trypsin: complete degradation within (trypsin): within 1 h
CC[C@H](C)[C@H](NC(=O)[C@H](CCCN=C(N)N)NC(=O)[C@H](CCCN=C(N)N)NC(=O)[C@H](CC(C)C)NC(=O)[C@H](Cc1ccccc1)NC(=O)CNC(=O)CNC(=O)[C@@H](N)Cc1ccc(O)cc1)C(=O)N[C@@H](CCCN=C(N)N)C(=O)N1CCC[C@H]1C(=O)N[C@@H](CCCCN)C(N)=O [DP-11-00]	–	–	–	–	–	Susceptibility to trypsin digestion (trypsin): highly susceptible; Trypsin: complete degradation within (trypsin): within 1 h
CC1(C)CNC(=O)C[C@H](NC(=O)[C@@H](N)Cc2ccc(O)cc2)C(=O)NCC(=O)N[C@@H](Cc2ccccc2)C(=O)NC(C(=O)N[C@@H](CCCNC(=N)N)C(=O)N[C@@H](CCCNC(=N)N)C(N)=O)CSS1 (stereo partly drawn) [CP2, c(Tyr-Asp-Gly-Phe-SSa-Arg-Arg)] (H-YDGF[ξC]RR-NH2; linker 2-5 via NHCH2CMe2S; N-terminus assumed)	< 0.01 min	< 0.01 min	2330 nM	320 nM	1380 nM	–
CC(C)C[C@H](NC(=O)[C@H](Cc1ccc(Cl)cc1)NC(=O)CN(C)C(=O)[C@@H](N)Cc1ccc(O)cc1)C(=O)N[C@@H](CCCNC(=N)N)C(=O)N[C@H](CCCNC(=N)N)C(=O)NC1CSSC(C)(C)CNC(=O)C[C@@H](C(=O)N[C@@H](CCCCN)C(N)=O)NC(=O)[C@H](CCCNC(=N)N)NC1=O (stereo partly drawn) [CP10, c(Tyr-Sar-(p-Cl-Phe)-Leu-Arg-D(Arg)-SSa-Arg-Asp-Lys)] (H-Y[Sar][Phe(4-Cl)]LR[dR][ξC]RDK-NH2; linker 7-9 via X1; N-terminus assumed)	2.3 min	–	1600 nM	0.94 nM	127 nM	–
CC(C)C[C@H](NC(=O)[C@H](Cc1ccc([N+](=O)[O-])cc1)NC(=O)CN(C)C(=O)[C@@H](N)Cc1ccc(O)cc1)C(=O)N[C@@H](CCCNC(=N)N)C(=O)N(C)[C@@H](CCCNC(=N)N)C(=O)NC1CSSC(C)(C)CNC(=O)C[C@@H](C(=O)N[C@@H](CCCCN)C(N)=O)NC(=O)[C@H](CCCNC(=N)N)NC1=O (stereo partly drawn) [CP12, c(Tyr-Sar-(p-NO2-Phe)-Leu-Arg-NMA-SSa-Arg-Asp-Lys)] (H-Y[Sar][Phe(4-NO2)]LR[NMeR][ξC]RDK-NH2; linker 7-9 via X1; N-terminus assumed)	0.019 min	< 0.01 min	–	7.5 nM	–	–
CC1(C)CNC(=O)C[C@H](NC(=O)CNC(=O)[C@@H](N)Cc2ccc(O)cc2)C(=O)N[C@@H](Cc2ccccc2)C(=O)NC(C(=O)N[C@@H](CCCNC(=N)N)C(=O)N[C@@H](CCCNC(=N)N)C(N)=O)CSS1 (stereo partly drawn) [CP4, c(Tyr-Gly-Asp-Phe-SSa-Arg-Arg)] (H-YGDF[ξC]RR-NH2; linker 3-5 via NHCH2CMe2S; N-terminus assumed)	–	–	> 10000 nM	> 10000 nM	> 10000 nM	–
CC1(C)CNC(=O)C[C@@H](C(=O)N[C@@H](CCCNC(=N)N)C(=O)N[C@@H](CCCNC(=N)N)C(N)=O)NC(=O)[C@H](Cc2ccccc2)NC(=O)C(NC(=O)CNC(=O)[C@@H](N)Cc2ccc(O)cc2)CSS1 (stereo partly drawn) [CP3, c(Tyr-Gly-SSa-Phe-Asp-Arg-Arg)] (H-YG[ξC]FDRR-NH2; linker 3-5 via X1; N-terminus assumed)	–	–	> 10000 nM	> 10000 nM	> 10000 nM	–
CC[C@H](C)[C@H](NC(=O)C1CSSC(C)(C)CNC(=O)C[C@@H](NC(=O)[C@H](Cc2ccccc2)NC(=O)CNC(=O)CNC(=O)[C@@H](N)Cc2ccc(O)cc2)C(=O)N[C@@H](CCCNC(=N)N)C(=O)N1)C(=O)N[C@@H](CCCNC(=N)N)C(=O)N1CCC[C@H]1C(=O)N[C@@H](CCCCN)C(N)=O (stereo partly drawn) [DP-11-06, c(Tyr-Gly-Gly-Phe-D(Asp)-Arg-SSa-Ile-Arg-Pro-Lys)] (H-YGGF[dD]R[ξC]IRPK-NH2; linker 5-7 via NHCH2CMe2S; N-terminus assumed)	360 min	30 min	–	0.75 nM	–	Peptide remained in trypsin after 360 minutes ([1]; n = 1): # (more than 90% remained after 360 minutes); half-life (Serum stability): 1800 s
CC1(C)CNC(=O)C[C@@H](NC(=O)CNC(=O)[C@@H](N)Cc2ccc(O)cc2)C(=O)N[C@@H](Cc2ccccc2)C(=O)N[C@H](C(=O)N[C@@H](CCCNC(=N)N)C(=O)N[C@@H](CCCNC(=N)N)C(N)=O)CSS1 [DP-7-14, c(Tyr-Gly-D(Asp)-Phe-SSa-Arg-Arg)] (H-YG[dD]FCRR-NH2; linker 3-5 via NHCH2CMe2S)	< 0.01 min	< 0.01 min	–	–	–	–

Source: patent publication US20220089646A1 (THE UNIVERSITY OF QUEENSLAND, priority 2019, published 2022)
